Reference: ChEMBL document CHEMBL4507318, “Data for DCP probe BAY-985” (2021)

Tests used:
[1] = target: Serine/threonine-protein kinase PRP4 homolog (Homo sapiens) (UniProt Q13523)
[2] = target: Phosphatidylinositol 4-phosphate 5-kinase type-1 gamma (Homo sapiens) (UniProt O60331)
[3] = target: Serine/threonine-protein kinase PAK 4 (Homo sapiens) (UniProt O96013)
[4] = target: Myotonin-protein kinase (Homo sapiens) (UniProt Q09013)
[5] = test system: Proto-oncogene tyrosine-protein kinase receptor Ret (Homo sapiens), P07949 [V804L]
[6] = target: Mitogen-activated protein kinase kinase kinase 9 (Homo sapiens) (UniProt P80192)
[7] = target: Serine/threonine-protein kinase PAK 1 (Homo sapiens) (UniProt Q13153)
[8] = target: Calcium/calmodulin-dependent protein kinase type 1 (Homo sapiens) (UniProt Q14012)
[9] = target: NT-3 growth factor receptor (Homo sapiens) (UniProt Q16288)
[10] = target: Mast/stem cell growth factor receptor Kit (Homo sapiens) (UniProt P10721)
[11] = target: Serine/threonine-protein kinase tousled-like 1 (Homo sapiens) (UniProt Q9UKI8)
[12] = target: Maternal embryonic leucine zipper kinase (Homo sapiens) (UniProt Q14680)
[13] = target: Serine/threonine-protein kinase SIK2 (Homo sapiens) (UniProt Q9H0K1)
[14] = target: cAMP-dependent protein kinase catalytic subunit beta (Homo sapiens) (UniProt P22694)
[15] = target: Serine/threonine-protein kinase 17B (Homo sapiens) (UniProt O94768)
[16] = target: Tyrosine-protein kinase JAK1 (Homo sapiens) (UniProt P23458)
[17] = target: Rho-associated protein kinase 1 (Homo sapiens) (UniProt Q13464)
[18] = target: Alpha-2A adrenergic receptor (Homo sapiens) (UniProt P08913); conditions: Compound concentration 10.0 uM
[19] = target: Alpha-1B adrenergic receptor (Homo sapiens) (UniProt P35368); conditions: Compound concentration 10.0 uM
[20] = target: Dual serine/threonine and tyrosine protein kinase (Homo sapiens) (UniProt Q6XUX3)
[21] = target: 5-hydroxytryptamine receptor 2B (Homo sapiens, UniProt P41595); conditions: Compound concentration 10.0 uM
[22] = target: Interferon-induced, double-stranded RNA-activated protein kinase (Homo sapiens) (UniProt P19525)
[23] = target: Protein kinase C eta type (Homo sapiens) (UniProt P24723)
[24] = target: Sigma non-opioid intracellular receptor 1 (Homo sapiens) (UniProt Q99720); conditions: Compound concentration 10.0 uM
[25] = target: Serine/threonine-protein kinase MARK2 (Homo sapiens) (UniProt Q7KZI7)
[26] = target: Serine/threonine-protein kinase 38-like (Homo sapiens) (UniProt Q9Y2H1)
[27] = target: Tyrosine-protein kinase Fgr (Homo sapiens) (UniProt P09769)
[28] = target: Protein kinase C epsilon type (Homo sapiens) (UniProt Q02156)
[29] = target: AP2-associated protein kinase 1 (Homo sapiens) (UniProt Q2M2I8)
[30] = target: Serine/threonine-protein kinase DCLK1 (Homo sapiens) (UniProt O15075)
[31] = target: Mitogen-activated protein kinase 1 (Homo sapiens) (UniProt P28482)
[32] = target: Sodium-dependent serotonin transporter (Homo sapiens) (UniProt P31645); conditions: Compound concentration 10.0 uM
[33] = target: Dual specificity tyrosine-phosphorylation-regulated kinase 1B (Homo sapiens) (UniProt Q9Y463)
[34] = test system: eIF-2-alpha kinase GCN2 (Homo sapiens), Q9P2K8 [S808G]
[35] = target: GABA-A receptor; anion channel (Rattus norvegicus) (UniProt O09028+P15431+P18506+P18508+P19969+P20236+P23574+P23576+P28471+P28473+P30191+P62813+P63079+P63138+Q91ZM7+Q9ES14); conditions: Compound concentration 10.0 uM
[36] = target: cAMP-dependent protein kinase catalytic subunit alpha (Homo sapiens) (UniProt P17612)
[37] = target: Alpha-2B adrenergic receptor (Homo sapiens) (UniProt P18089); conditions: Compound concentration 10.0 uM
[38] = target: Protein kinase C theta type (Homo sapiens) (UniProt Q04759)
[39] = target: Macrophage colony-stimulating factor 1 receptor (Homo sapiens) (UniProt P07333)
[40] = target: Tyrosine-protein kinase Lyn (Homo sapiens) (UniProt P07948)
[41] = target: Ribosomal protein S6 kinase alpha-6 (Homo sapiens) (UniProt Q9UK32)
[42] = target: 5-hydroxytryptamine receptor 2C (Homo sapiens) (UniProt P28335); conditions: Compound concentration 10.0 uM
[43] = test system: Tyrosine-protein kinase ABL1 (Homo sapiens), P00519 [Q252H]
[44] = target: Serine/threonine-protein kinase SBK1 (Homo sapiens) (UniProt Q52WX2)
[45] = Compound concentration 1000.0 nM
[46] = Compound concentration 100.0 nM

Ribosomal protein S6 kinase alpha-6 (Homo sapiens), sequence (Q9UK32 whole entry): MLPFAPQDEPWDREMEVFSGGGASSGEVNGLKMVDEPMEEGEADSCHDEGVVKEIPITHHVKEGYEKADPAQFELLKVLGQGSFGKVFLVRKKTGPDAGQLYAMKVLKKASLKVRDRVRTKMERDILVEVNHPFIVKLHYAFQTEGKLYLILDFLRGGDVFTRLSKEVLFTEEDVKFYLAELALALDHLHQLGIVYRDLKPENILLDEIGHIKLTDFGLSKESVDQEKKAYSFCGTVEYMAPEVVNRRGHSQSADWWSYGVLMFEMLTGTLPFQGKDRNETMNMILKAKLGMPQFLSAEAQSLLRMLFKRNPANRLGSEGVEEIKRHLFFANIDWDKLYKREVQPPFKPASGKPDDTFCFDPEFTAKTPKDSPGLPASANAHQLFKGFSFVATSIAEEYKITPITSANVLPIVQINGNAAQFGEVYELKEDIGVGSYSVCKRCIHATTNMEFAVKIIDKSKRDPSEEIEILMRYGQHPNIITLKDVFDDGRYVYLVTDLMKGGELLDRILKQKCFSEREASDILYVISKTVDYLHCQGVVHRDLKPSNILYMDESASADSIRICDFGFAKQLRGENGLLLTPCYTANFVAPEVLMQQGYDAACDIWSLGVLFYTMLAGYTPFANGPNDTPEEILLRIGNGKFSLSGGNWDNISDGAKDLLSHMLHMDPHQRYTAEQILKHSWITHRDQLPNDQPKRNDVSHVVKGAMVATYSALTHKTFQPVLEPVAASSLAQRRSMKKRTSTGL
Maternal embryonic leucine zipper kinase (Homo sapiens), sequence (Q14680 whole entry, looked up): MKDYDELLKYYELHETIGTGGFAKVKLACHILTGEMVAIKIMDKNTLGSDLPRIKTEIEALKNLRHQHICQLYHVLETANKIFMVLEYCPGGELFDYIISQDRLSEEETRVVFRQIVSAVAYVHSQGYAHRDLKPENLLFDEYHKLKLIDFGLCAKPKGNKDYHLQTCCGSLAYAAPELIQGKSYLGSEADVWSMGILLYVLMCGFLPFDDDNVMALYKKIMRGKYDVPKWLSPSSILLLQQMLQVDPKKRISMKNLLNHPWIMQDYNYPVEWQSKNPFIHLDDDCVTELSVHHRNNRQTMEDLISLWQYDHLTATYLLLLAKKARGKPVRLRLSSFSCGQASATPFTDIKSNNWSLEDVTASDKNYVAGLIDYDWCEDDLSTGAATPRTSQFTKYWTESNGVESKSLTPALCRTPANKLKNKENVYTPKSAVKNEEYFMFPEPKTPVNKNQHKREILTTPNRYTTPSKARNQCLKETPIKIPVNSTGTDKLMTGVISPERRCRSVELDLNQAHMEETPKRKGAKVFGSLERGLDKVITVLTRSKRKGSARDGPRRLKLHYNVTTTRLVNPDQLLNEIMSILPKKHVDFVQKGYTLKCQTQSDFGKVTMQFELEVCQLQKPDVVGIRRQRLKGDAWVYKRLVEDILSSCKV
Serine/threonine-protein kinase DCLK1 (Homo sapiens), sequence (O15075 whole entry): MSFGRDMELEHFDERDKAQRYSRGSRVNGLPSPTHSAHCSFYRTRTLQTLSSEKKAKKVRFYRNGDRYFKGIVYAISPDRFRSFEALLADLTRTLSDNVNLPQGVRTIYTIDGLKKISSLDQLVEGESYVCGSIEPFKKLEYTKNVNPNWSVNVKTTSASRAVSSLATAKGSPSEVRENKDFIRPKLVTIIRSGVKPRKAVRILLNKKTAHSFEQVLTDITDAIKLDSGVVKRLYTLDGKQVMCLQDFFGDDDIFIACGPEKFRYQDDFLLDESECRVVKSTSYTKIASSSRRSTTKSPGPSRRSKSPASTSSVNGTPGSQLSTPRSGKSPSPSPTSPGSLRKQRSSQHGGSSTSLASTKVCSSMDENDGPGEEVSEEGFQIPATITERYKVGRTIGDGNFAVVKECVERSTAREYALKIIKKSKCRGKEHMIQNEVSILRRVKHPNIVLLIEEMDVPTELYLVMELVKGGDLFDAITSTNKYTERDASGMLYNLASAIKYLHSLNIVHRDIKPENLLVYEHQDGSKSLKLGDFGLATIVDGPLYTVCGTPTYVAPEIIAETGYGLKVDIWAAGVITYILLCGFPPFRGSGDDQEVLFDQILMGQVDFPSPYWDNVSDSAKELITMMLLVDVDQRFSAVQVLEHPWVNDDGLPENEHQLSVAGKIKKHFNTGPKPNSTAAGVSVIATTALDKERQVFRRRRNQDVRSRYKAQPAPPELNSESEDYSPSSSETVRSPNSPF
Serine/threonine-protein kinase 38-like (Homo sapiens), sequence (Q9Y2H1 2-464 limits assumed): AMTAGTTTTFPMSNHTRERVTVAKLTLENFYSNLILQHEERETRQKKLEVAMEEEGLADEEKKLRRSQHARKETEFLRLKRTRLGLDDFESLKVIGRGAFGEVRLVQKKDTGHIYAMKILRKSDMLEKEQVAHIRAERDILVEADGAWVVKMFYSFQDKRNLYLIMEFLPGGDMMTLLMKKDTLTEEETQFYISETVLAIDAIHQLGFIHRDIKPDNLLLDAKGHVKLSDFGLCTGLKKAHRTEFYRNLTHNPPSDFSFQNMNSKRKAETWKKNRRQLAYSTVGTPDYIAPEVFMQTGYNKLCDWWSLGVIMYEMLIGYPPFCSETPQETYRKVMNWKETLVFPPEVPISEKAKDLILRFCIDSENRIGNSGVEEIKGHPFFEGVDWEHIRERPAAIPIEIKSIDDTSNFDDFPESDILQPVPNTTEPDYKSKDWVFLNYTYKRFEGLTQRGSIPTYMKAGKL
Interferon-induced, double-stranded RNA-activated protein kinase (Homo sapiens), sequence (P19525 whole entry): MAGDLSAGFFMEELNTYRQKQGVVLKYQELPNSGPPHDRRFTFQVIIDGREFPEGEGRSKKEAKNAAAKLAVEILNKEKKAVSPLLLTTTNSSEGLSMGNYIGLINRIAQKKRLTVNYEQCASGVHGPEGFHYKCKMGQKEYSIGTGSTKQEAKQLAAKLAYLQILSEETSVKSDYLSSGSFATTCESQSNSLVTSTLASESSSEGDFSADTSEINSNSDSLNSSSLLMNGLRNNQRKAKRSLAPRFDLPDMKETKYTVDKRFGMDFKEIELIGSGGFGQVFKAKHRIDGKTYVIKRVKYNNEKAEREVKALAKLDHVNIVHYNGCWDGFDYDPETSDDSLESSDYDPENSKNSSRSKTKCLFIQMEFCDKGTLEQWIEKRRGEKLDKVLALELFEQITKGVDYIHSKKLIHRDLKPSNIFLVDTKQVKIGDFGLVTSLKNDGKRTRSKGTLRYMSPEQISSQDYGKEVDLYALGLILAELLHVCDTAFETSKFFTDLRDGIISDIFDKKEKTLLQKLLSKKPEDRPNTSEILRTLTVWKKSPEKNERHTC
Sodium-dependent serotonin transporter (Homo sapiens), sequence (P31645 whole entry, looked up): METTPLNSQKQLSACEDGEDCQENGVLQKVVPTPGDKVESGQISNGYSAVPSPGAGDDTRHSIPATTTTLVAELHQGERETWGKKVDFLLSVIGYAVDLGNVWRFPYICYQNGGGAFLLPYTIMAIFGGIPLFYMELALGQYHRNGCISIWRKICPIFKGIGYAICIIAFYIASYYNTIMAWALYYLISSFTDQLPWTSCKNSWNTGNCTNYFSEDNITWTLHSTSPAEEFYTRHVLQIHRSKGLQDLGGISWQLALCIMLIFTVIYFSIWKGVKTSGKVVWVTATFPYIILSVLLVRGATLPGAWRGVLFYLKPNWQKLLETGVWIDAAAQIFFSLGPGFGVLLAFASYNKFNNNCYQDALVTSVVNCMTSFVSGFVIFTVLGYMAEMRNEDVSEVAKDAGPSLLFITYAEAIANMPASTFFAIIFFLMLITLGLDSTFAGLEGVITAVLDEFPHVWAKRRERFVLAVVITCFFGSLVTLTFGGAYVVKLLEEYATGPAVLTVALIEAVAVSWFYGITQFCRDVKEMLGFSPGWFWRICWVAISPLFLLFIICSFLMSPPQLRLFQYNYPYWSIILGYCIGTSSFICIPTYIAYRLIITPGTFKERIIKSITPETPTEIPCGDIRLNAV
Serine/threonine-protein kinase SBK1 (Homo sapiens), sequence (Q52WX2 whole entry): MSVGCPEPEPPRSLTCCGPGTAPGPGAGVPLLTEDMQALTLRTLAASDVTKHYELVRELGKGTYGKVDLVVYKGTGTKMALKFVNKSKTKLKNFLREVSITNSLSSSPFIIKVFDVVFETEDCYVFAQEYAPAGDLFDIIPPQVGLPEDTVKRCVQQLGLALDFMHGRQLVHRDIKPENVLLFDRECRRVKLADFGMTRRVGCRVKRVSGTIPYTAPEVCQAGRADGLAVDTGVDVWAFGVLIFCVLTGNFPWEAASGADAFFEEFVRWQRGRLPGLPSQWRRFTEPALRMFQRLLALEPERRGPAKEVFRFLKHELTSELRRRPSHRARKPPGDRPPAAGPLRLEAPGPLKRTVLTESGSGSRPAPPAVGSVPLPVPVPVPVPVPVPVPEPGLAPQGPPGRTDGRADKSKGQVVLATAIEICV
Alpha-2B adrenergic receptor (Homo sapiens), sequence (P18089 whole entry): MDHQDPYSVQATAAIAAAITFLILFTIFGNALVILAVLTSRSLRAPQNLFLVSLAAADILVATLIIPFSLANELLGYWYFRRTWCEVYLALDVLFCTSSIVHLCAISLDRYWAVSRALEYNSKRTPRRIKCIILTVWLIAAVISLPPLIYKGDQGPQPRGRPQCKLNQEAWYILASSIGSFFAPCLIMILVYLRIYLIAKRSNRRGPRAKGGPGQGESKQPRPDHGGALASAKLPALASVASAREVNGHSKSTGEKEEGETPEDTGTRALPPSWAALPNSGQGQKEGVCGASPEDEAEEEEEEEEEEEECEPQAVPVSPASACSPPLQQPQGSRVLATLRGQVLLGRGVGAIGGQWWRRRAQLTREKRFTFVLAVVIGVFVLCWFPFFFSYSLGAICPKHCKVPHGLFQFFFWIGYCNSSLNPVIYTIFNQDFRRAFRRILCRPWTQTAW
Sigma non-opioid intracellular receptor 1 (Homo sapiens), sequence (Q99720 whole entry): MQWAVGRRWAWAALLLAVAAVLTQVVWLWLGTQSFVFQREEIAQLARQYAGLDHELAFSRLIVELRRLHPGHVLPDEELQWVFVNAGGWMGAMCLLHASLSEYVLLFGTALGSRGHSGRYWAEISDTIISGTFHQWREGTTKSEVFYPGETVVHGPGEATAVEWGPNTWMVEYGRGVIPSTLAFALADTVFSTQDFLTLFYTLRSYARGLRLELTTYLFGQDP

SMILES: CN(C)c1ncnc(-c2ccc3nc(Nc4cc(CN5CCN(C(=O)CC(F)(F)F)CC5)ccn4)[nH]c3c2)c1Cl [BAY-440]
- residual activity [1, 45]: 100%
- residual activity [2, 45]: 100%
- residual activity [3, 45]: 100%
- residual activity [4, 45]: 91%
- residual activity [5, 45]: 100%
- residual activity [6, 45]: 90%
- residual activity [7, 45]: 100%
- residual activity [8, 45]: 100%
- residual activity [9, 45]: 61%
- residual activity [10, 45]: 100%
- residual activity [11, 45]: 89%
- residual activity [12, 45]: 95%
- residual activity [13, 45]: 59%
- residual activity [14, 45]: 76%
- residual activity [15, 45]: 52%
- residual activity [16, 45]: 68%
- residual activity [17, 45]: 100%
- inhibition [18]: 15.7%
- inhibition [19]: 4.51%
- residual activity [20, 45]: 95%
- inhibition [21]: 39%
- residual activity [22, 45]: 100%
- residual activity [23, 45]: 100%
- inhibition [24]: 13.9%
- residual activity [25, 45]: 68%
- residual activity [26, 45]: 74%
- residual activity [27, 45]: 98%
- residual activity [28, 45]: 100%
- residual activity [29, 45]: 85%
- residual activity [30, 45]: 92%
- residual activity [31, 45]: 100%
- inhibition [32]: 9.9%
- residual activity [33, 45]: 100%
- residual activity [34, 45]: 100%
- inhibition [35]: 14%
- residual activity [36, 45]: 100%
- inhibition [37]: -2.22%
- residual activity [38, 45]: 100%
- residual activity [39, 45]: 50%
- residual activity [40, 45]: 94%
- residual activity [41, 45]: 84%
- inhibition [42]: 0.02%
- residual activity [43, 45]: 22%
- residual activity [44, 45]: 71%

SMILES: C[C@H](c1ccnc(Nc2nc3ccc(-c4cc(N(C)C)ncn4)cc3[nH]2)c1)N1CCN(C(=O)CC(F)(F)F)CC1 [BAY-985]
- residual activity [1, 46]: 80%
- residual activity [2, 46]: 89%
- residual activity [3, 46]: 81%
- residual activity [4, 46]: 100%
- residual activity [5, 46]: 83%
- residual activity [6, 46]: 100%
- residual activity [7, 46]: 77%
- residual activity [8, 46]: 88%
- residual activity [9, 46]: 100%
- residual activity [10, 46]: 88%
- residual activity [11, 46]: 76%
- residual activity [12, 46]: 100%
- residual activity [13, 46]: 79%
- residual activity [14, 46]: 100%
- residual activity [15, 46]: 100%
- residual activity [16, 46]: 100%
- residual activity [17, 46]: 100%
- inhibition [18]: 24.2%
- inhibition [19]: 2.95%
- residual activity [20, 46]: 100%
- inhibition [21]: 60%
- residual activity [22, 46]: 100%
- residual activity [23, 46]: 84%
- inhibition [24]: 3.18%
- residual activity [25, 46]: 100%
- residual activity [26, 46]: 65%
- residual activity [27, 46]: 85%
- residual activity [28, 46]: 96%
- residual activity [29, 46]: 60%
- residual activity [30, 46]: 96%
- residual activity [31, 46]: 78%
- inhibition [32]: 21.6%
- residual activity [33, 46]: 84%
- residual activity [34, 46]: 58%
- inhibition [35]: 5.57%
- residual activity [36, 46]: 100%
- inhibition [37]: 24.7%
- residual activity [38, 46]: 100%
- residual activity [39, 46]: 90%
- residual activity [40, 46]: 97%
- residual activity [41, 46]: 97%
- inhibition [42]: 11.4%
- residual activity [43, 46]: 94%
- residual activity [44, 46]: 85%
